In PubChem BioAssay (NCI):
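Assay format: 96-well plates, 48-hour exposure. The concentration for full growth arrest is given as TGI.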

Key:
Assay in all cases: NCI anticancer screen, dose series, 48 h
[1] = tested on: NCI-H522 lung
[2] = tested on: OVCAR-5 ovarian
[3] = tested on: HCC-2998 colon
[4] = tested on: RPMI-8226 leukemia
[5] = tested on: M14 melanoma
[6] = tested on: MDA-MB-435
[7] = tested on: K-562 leukemia
[8] = tested on: COLO 205 colon
[9] = tested on: SF-295 CNS
[10] = tested on: NCI-H460 lung
[11] = tested on: NCI/ADR-RES ovarian
[12] = tested on: MDA-MB-231 breast
[13] = tested on: UO-31 renal
[14] = tested on: CCRF-CEM leukemia
[15] = tested on: MOLT-4 leukemia
[16] = tested on: ACHN renal
[17] = tested on: HT29 colon
[18] = tested on: SK-MEL-2 melanoma
[19] = tested on: MALME-3M melanoma
[20] = tested on: OVCAR-8 ovarian
[21] = tested on: SW-620 colon
[22] = tested on: MDA-N
[23] = tested on: SF-268 CNS
[24] = tested on: 786-0 renal
[25] = tested on: TK-10 renal
[26] = tested on: A498 renal
[27] = tested on: RXF 393 renal
[28] = tested on: NCI-H226 lung
[29] = tested on: HCT-15 colon
[30] = tested on: UACC-62 melanoma
[31] = tested on: SN12C renal
[32] = tested on: KM12 colon
[33] = tested on: OVCAR-4 ovarian
[34] = tested on: SK-MEL-5 melanoma
[35] = tested on: T-47D breast
[36] = tested on: SNB-75 CNS
[37] = tested on: HL-60(TB) leukemia
[38] = tested on: SK-MEL-28 melanoma
[39] = tested on: HOP-92 NSCLC
[40] = tested on: A549 NSCLC
[41] = tested on: CAKI-1 renal
[42] = tested on: EKVX NSCLC
[43] = tested on: UACC-257 melanoma
[44] = tested on: SF-539 CNS
[45] = tested on: HCT-116 colon
[46] = tested on: SNB-19 CNS
[47] = tested on: DU-145 prostate
[48] = tested on: NCI-H23 lung
[49] = tested on: OVCAR-3 ovarian
[50] = tested on: IGROV1 ovarian
[51] = tested on: SR leukemia
[52] = tested on: HS 578T breast
[53] = tested on: PC-3 prostate
[54] = tested on: U251 CNS
[55] = tested on: LOX IMVI melanoma
[56] = tested on: HOP-62 NSCLC

**Q.** With `Cc1cc(CC(O)(C(F)(F)F)C(F)(F)F)cc(CC(O)(C(F)(F)F)C(F)(F)F)n1` as the compound, how does the TGI [1] read?
**A.** The TGI was 6.35 µM.

**Q.** And the TGI [2]?
**A.** The TGI was 19.2 µM.

**Q.** What about the TGI [3] of the same compound?
**A.** Its TGI is 14.2 µM.

**Q.** And the TGI [4]?
**A.** Its TGI is 5.96 µM.

**Q.** And the TGI [5]?
**A.** The TGI was 12 µM.

**Q.** What about the TGI [6] of the same compound?
**A.** Its TGI is 8.26 µM.

**Q.** And the TGI [7]?
**A.** Its TGI is greater than 100 µM.

**Q.** What about the TGI [8] of the same compound?
**A.** Its TGI is 3.33 µM.

**Q.** What about the TGI [9] of the same compound?
**A.** The TGI was 9.94 µM.

**Q.** What about the TGI [10] of the same compound?
**A.** Its TGI is 4.2 µM.

**Q.** What about the TGI [11] of the same compound?
**A.** Its TGI is 5.95 µM.

**Q.** What about the TGI [12] of the same compound?
**A.** Its TGI is 6.84 µM.

**Q.** What about the TGI [13] of the same compound?
**A.** The TGI was 4.02 µM.

**Q.** And the TGI [14]?
**A.** Its TGI is 12 µM.

**Q.** And the TGI [15]?
**A.** Its TGI is 13.2 µM.

**Q.** And the TGI [16]?
**A.** Its TGI is 8.29 µM.

**Q.** And the TGI [17]?
**A.** Its TGI is 7.79 µM.

**Q.** What about the TGI [18] of the same compound?
**A.** The TGI was 5.45 µM.

**Q.** And the TGI [19]?
**A.** Its TGI is 4.3 µM.

**Q.** What about the TGI [20] of the same compound?
**A.** The TGI was 12.4 µM.

**Q.** What about the TGI [21] of the same compound?
**A.** Its TGI is greater than 100 µM.

**Q.** What about the TGI [22] of the same compound?
**A.** The TGI was 13 µM.

**Q.** What about the TGI [23] of the same compound?
**A.** The TGI was 10.1 µM.

**Q.** And the TGI [24]?
**A.** Its TGI is 6.66 µM.

**Q.** And the TGI [25]?
**A.** Its TGI is 13.6 µM.

**Q.** And the TGI [26]?
**A.** Its TGI is 7.87 µM.

**Q.** What about the TGI [27] of the same compound?
**A.** Its TGI is 14.9 µM.

**Q.** And the TGI [28]?
**A.** Its TGI is 8.13 µM.

**Q.** What about the TGI [29] of the same compound?
**A.** The TGI was 12.6 µM.

**Q.** And the TGI [30]?
**A.** Its TGI is 12.5 µM.

**Q.** And the TGI [31]?
**A.** The TGI was 9.25 µM.

**Q.** And the TGI [32]?
**A.** The TGI was 5.13 µM.

**Q.** What about the TGI [33] of the same compound?
**A.** Its TGI is 12.6 µM.

**Q.** And the TGI [34]?
**A.** Its TGI is 3.34 µM.

**Q.** And the TGI [35]?
**A.** Its TGI is 7.3 µM.

**Q.** What about the TGI [36] of the same compound?
**A.** The TGI was 6.58 µM.

**Q.** And the TGI [37]?
**A.** The TGI was 7.85 µM.

**Q.** And the TGI [38]?
**A.** Its TGI is 9.54 µM.

**Q.** What about the TGI [39] of the same compound?
**A.** Its TGI is 5.48 µM.

**Q.** And the TGI [40]?
**A.** Its TGI is 10.9 µM.

**Q.** And the TGI [41]?
**A.** The TGI was greater than 100 µM.

**Q.** And the TGI [42]?
**A.** The TGI was 10.8 µM.

**Q.** And the TGI [43]?
**A.** The TGI was 8.65 µM.

**Q.** And the TGI [44]?
**A.** Its TGI is 8.71 µM.

**Q.** And the TGI [45]?
**A.** The TGI was 6.09 µM.

**Q.** And the TGI [46]?
**A.** Its TGI is greater than 100 µM.

**Q.** And the TGI [47]?
**A.** Its TGI is 7.94 µM.

**Q.** What about the TGI [48] of the same compound?
**A.** Its TGI is 5.31 µM.

**Q.** And the TGI [49]?
**A.** The TGI was 2.76 µM.

**Q.** And the TGI [50]?
**A.** The TGI was 11.2 µM.

**Q.** What about the TGI [51] of the same compound?
**A.** Its TGI is 15.1 µM.

**Q.** And the TGI [52]?
**A.** Its TGI is 8.23 µM.

**Q.** And the TGI [53]?
**A.** The TGI was 10.3 µM.

**Q.** And the TGI [54]?
**A.** Its TGI is 11.9 µM.

**Q.** And the TGI [55]?
**A.** The TGI was 5.79 µM.

**Q.** And the TGI [56]?
**A.** The TGI was 8.79 µM.
